The first experiment addresses AChE (Electrophorus electricus—eeAChE) (Electrophorus electricus, UniProt O42275). Briefly: biochemical. In kind it is biochemical.
Conditions: not given
How it is done: The synthesized compounds were evaluated for their inhibitory activity against AChE (Electrophorus electricus—eeAChE), using an adaptation of Ellman’s method. […] Initially, we performed a screening assay for the synthesized compounds to determine their enzyme inhibition at 20 μΜ as a threshold maximum concentration. […]
The inhibitory activity of the synthesized compounds towards AChE was evaluated spectrophotometrically by a 96-well microplate modified Ellman’s method. The enzyme (AChE) from Electrophorus electricus (eeAChE) stock solution was prepared as 7.4 U/mL in phosphate buffer, at pH 7. The stock solutions for the target compounds (0.1 M) were prepared in DMSO. The assay solution consisted of 0.0005 M 5,5′-dithiobis(2-nitrobenzoic acid) (DTNB), 0.013 U/mL eeAChE, and 0.0025 M acetylthiocholine iodide ATC (substrate for AChE) in 0.1 M phosphate buffer, at pH 7. The reaction mixture was prepared with 100 μL of the enzyme (eeAChE) and 50 μL of the test compound (or DMSO/water, not exceeding 0.2% of DMSO in the wells; i.e., blank samples). After 5 min of the pre-incubation period at 37 °C, 50 μL of acetylthiocholine iodide ATC and 50 μL of 5,5′-dithiobis(2-nitrobenzoic acid) (DTNB) were added to each well, thus initiating the enzymatic reaction. […] All compounds were tested at a screening concentration of 20 μM. The enzyme inhibition was calculated using the […] formula, where S and B are the enzyme activities with and without the test compound, respectively. […] All the reactions were performed in triplicate.
AChE (Electrophorus electricus—eeAChE), sequence (O42275 24-633): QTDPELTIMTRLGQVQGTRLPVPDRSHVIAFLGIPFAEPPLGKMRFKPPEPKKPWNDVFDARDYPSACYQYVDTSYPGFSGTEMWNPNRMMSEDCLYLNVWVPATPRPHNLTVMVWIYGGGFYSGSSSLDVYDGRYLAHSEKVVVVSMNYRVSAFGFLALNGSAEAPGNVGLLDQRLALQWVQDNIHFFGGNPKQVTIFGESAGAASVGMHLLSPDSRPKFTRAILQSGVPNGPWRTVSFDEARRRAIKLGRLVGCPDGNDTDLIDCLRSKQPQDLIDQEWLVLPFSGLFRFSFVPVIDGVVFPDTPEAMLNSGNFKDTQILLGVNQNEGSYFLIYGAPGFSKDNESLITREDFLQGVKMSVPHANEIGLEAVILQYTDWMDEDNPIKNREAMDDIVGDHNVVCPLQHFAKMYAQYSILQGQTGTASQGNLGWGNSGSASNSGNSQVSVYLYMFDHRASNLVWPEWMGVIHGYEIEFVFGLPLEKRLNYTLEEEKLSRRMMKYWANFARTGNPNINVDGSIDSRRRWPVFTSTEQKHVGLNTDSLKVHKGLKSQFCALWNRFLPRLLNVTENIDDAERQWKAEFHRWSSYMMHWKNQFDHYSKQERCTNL
As usually defined, the IC50 is the concentration that gives 50% inhibition. On to `C#CCOc1ccccc1/C=C/c1cc(=O)c2ccccc2o1` [Compound 3a, (E)-2-[2-(prop-2-yn-1-yloxy)styryl]-4H-chromen-4-one], for which half-maximal inhibition (IC50) required 9.5 ± 0.3 µM.

In turn, `C#CCOc1ccccc1/C=C/c1cc(=O)c2ccc(OC)c(OC)c2o1` [Compound 3d, (E)-7,8-dimethoxy-2-[2-(prop-2-yn-1-yloxy)styryl]-4H-chromen-4-one] yielded a 50% inhibitory concentration (IC50) of 2.4 ± 0.1 µM.

As for `O=c1c2ccccc2oc2cc3c(cc12)COc1ccccc1-3` [Compound 4a, 6H,8H-Chromeno[3,4-b]xanthen-8-one], 2.1 ± 0.2 µM corresponded to half-maximal inhibition (IC50).

The same experiment, now with this note: Table 1; mean ± SEM, n = 3, each in triplicate; pH 7, 37 °C; read-out: eeAChE [IC50 (μM)].
With “2,9-Dimethoxy-6H,8H-chromeno[3,4-b]xanthen-8-one [Compound 4g]”, the IC50 was greater than 20 µM.

For the molecule “2,11,12-trimethoxy-6H,8H-chromeno[3,4-b]xanthen-8-one [Compound 4h]”, the IC50 was greater than 20 µM.

For the molecule “2,11-Dimethoxy-6H,8H-chromeno[3,4-b]xanthen-8-one [Compound 4f]”, the IC50 was found to be 4.8 ± 0.1 µM.

As to “2-Methoxy-6H,8H-chromeno[3,4-b]xanthen-8-one [Compound 4e]”, the IC50 is 6.9 ± 0.3 µM.

Consider `C#CCOc1ccccc1/C=C/c1cc(=O)c2ccc(OC)cc2o1` [Compound 3b, (E)-7-methoxy-2-[2-(prop-2-yn-1-yloxy)styryl]-4H-chromen-4-one], for which the IC50 is greater than 20 µM.

Regarding `C#CCOc1ccccc1/C=C/c1cc(=O)c2c(OC)cccc2o1` [Compound 3c, (E)-5-methoxy-2-[2-(prop-2-yn-1-yloxy)styryl]-4H-chromen-4-one], the IC50 was greater than 20 µM.

As for `C#CCOc1cc(OC)ccc1/C=C/c1cc(=O)c2ccccc2o1` [Compound 3e, (E)-2-[4-methoxy-2-(prop-2-yn-1-yloxy)styryl]-4H-chromen-4-one], the 50% inhibitory concentration (IC50) was greater than 20 µM.

Regarding `C#CCOc1cc(OC)ccc1/C=C/c1cc(=O)c2ccc(OC)cc2o1` [Compound 3f, (E)-7-methoxy-2-[4-methoxy-2-(prop-2-yn-1-yloxy)styryl]-4H-chromen-4-one], the concentration for half-maximal inhibition (IC50) is greater than 20 µM.

For the molecule `C#CCOc1ccc(Br)cc1/C=C/c1cc(=O)c2ccccc2o1` [Compound 3i], the IC50 is greater than 20 µM.

Take `COc1cccc2oc3cc4c(cc3c(=O)c12)COc1ccccc1-4` [Compound 4c, 9-Methoxy-6H,8H-chromeno[3,4-b]xanthen-8-one]: the IC50 was greater than 20 µM.

In the case of `COc1ccc2c(=O)c3cc4c(cc3oc2c1OC)-c1ccccc1OC4` [Compound 4d, 11,12-Dimethoxy-6H,8H-chromeno[3,4-b]xanthen-8-one], the IC50 is greater than 20 µM.

As for `O=c1c2ccccc2oc2cc3c(cc12)COc1ccc(Br)cc1-3` [Compound 4i, 2-bromo-6H,8H-chromeno[3,4-b]xanthen-8-one], the IC50 is greater than 20 µM.

`N#CCOc1ccccc1/C=C/c1cc(=O)c2ccccc2o1` [Compound 6, (E)-2-{2-[2-(4-oxo-4H-chromen-2-yl)vinyl]phenoxy}acetonitrile]: the IC50 is greater than 20 µM.

“(E)-7,8-dimethoxy-2-[4-methoxy-2-(prop-2-yn-1-yloxy)styryl]chroman-4-one [Compound 3h]”: the IC50 is greater than 20 µM.

On to “(E)-8-methoxy-3-[4-methoxy-2-(prop-2-yn-1-yloxy]styryl)naphthalen-1(4H)-one [Compound 3g]”, for which the IC50 was greater than 20 µM.

Staying with this experiment, now noted: Table 3 (dual-target summary); mean ± SEM, n = 3; read-out: eeAChE (IC50 [μM]).
With “2,11-Dimethoxy-6H,8H-chromeno[3,4-b]xanthen-8-one [Compound 4f]”, the IC50 came to 4.8 ± 0.1 µM.

Consider “2-Methoxy-6H,8H-chromeno[3,4-b]xanthen-8-one [Compound 4e]”, for which the IC50 worked out at 6.9 ± 0.3 µM.

For the molecule `COc1ccc2c(=O)c3cc4c(cc3oc2c1)-c1ccccc1OC4` [Compound 4b], the IC50 came out at 3.9 ± 0.1 µM.

Take `C#CCN(CC#C)c1ccccc1/C=C/c1cc(=O)c2ccccc2o1` [Compound 8, (E)-2-{2-[di(prop-2-yn-1-yl)amino]styryl}-4H-chromen-4-one]: the 50% inhibitory concentration (IC50) was found to be 8.7 ± 0.2 µM.

As for `Cc1ccc(C#CCOc2ccccc2/C=C/c2cc(=O)c3ccccc3o2)cc1` [Compound 10, (E)-2-(2-{[3-(4-methylphenyl)prop-2-yn-1-yl]oxy}styryl)-4H-chromen-4-one], the IC50 was 2.9 ± 0.1 µM.

Another experiment deals with T1, HFIP-treated Aβ1-42 peptides (Homo sapiens, UniProt P05067).
T1 construct: (HFIP)-treated Aβ1-42 peptides
T1 sequence (P05067 672-713): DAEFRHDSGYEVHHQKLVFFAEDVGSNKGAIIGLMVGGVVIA
Briefly: Aβ aggregation inhibition, thioflavin T (ThT)-based fluorimetric assay. The experiment is classed as biochemical. Particulars: Table 2; 20 μM compound, 10 μM Aβ, fluorescence at plateau over 24 h; <10 = no inhibition observed. An excerpt:
The formation of amyloid aggregates is crucial for the path mechanism of AD. Therefore, we also decided to check the inhibitory activity of the synthesized compounds against the Aβ aggregation. To do so, we conducted a thioflavin T (ThT)-based fluorimetric assay to evaluate their ability to inhibit β-amyloid aggregation in vitro, using 1,1,1,3,3,3,-hexafluoro-2-propanol (HFIP)-treated Aβ1-42 peptides. This assay is based on the interaction between benzothiazole dye (ThT) and cross β-sheet quaternary structure of the amyloid protein. The intensity of fluorescence is weak when the dye is free and increases when the dye binds to β-sheet structures. Cumulative evidence has been shown that aromatic/hydrophobic areas and hydrogen bonding components (such as hydroxy or methoxy groups) along flat extended structures in small-molecule inhibitors as in chromeno[3,4-b]xanthones 4a-i, are important structural features for Aβ aggregation inhibitors. […] The ThT fluorescence data was recorded over 24 h and the obtained results were then plotted against time, as illustrated in Figure 5. Phenol red was used as the reference inhibitor for in vitro Aβ aggregation.
The inhibition of Aβ1-42 aggregation was determined through a ThT-based fluorimetric assay. Initially, the Aβ-peptides (1 mg) were pre-treated with 1,1,1,3,3,3,-hexafluoro-2-propanol (HFIP), kept at room temperature overnight, aliquoted, and dried under vacuum. The Aβ-peptides stock solutions (111 μM) were then prepared in ammonium hydroxide 0.1% (NH4OH) prior to the fluorescence assay. The stock solutions of all tested compounds (400 μM) were prepared in DMSO, while the stock solution of ThT (400 μM) was prepared in distilled water (1 mL). The Aβ aggregation was monitored using a standard 96-well plates, in the Synergy multi-mode reader (BioTek) and setting the excitation and emission wavelengths at 440 and 485 nm, respectively. Samples were prepared by diluting the stock solutions in PBS pH 7.4 to a final Aβ peptides concentration of 10 μM, 20 μM of ThT and 20 μM of the test compound (maximum final DMSO content: 5% v/v), with a final volume of 100 μL. The assays were performed at room temperature. The fluorescence data was recorded over 24 h with 5 s shaking (360 cpm) prior to each reading and then plotted against the time, using a nonlinear regression. Phenol red was used as the reference compound. Each condition was performed in triplicate, and values were averaged. The estimation of the inhibitory potency (%) was carried out by comparing fluorescence values at the plateau.
As to “2,11-Dimethoxy-6H,8H-chromeno[3,4-b]xanthen-8-one [Compound 4f]”, the “Aβ1-42 Aggregation (% Inhib. at 20 μM)” value is on record as 52%.

Turning to “2-Methoxy-6H,8H-chromeno[3,4-b]xanthen-8-one [Compound 4e]”, the “Aβ1-42 Aggregation (% Inhib. at 20 μM)” value is 61%.

Staying with this experiment, now noted: Table 2; 20 μM compound, 10 μM Aβ, fluorescence at plateau over 24 h; <10 = no inhibition observed; read-out: Aβ1-42 Aggregation (% Inhib. at 20 μM).
Take `C#CCOc1ccccc1/C=C/c1cc(=O)c2ccccc2o1` [Compound 3a, (E)-2-[2-(prop-2-yn-1-yloxy)styryl]-4H-chromen-4-one]: the inhibition at 20 µM was less than 10%.

As for `C#CCOc1ccccc1/C=C/c1cc(=O)c2ccc(OC)cc2o1` [Compound 3b, (E)-7-methoxy-2-[2-(prop-2-yn-1-yloxy)styryl]-4H-chromen-4-one], the inhibition at 20 µM was less than 10%.

As to `C#CCOc1ccccc1/C=C/c1cc(=O)c2ccc(OC)c(OC)c2o1` [Compound 3d, (E)-7,8-dimethoxy-2-[2-(prop-2-yn-1-yloxy)styryl]-4H-chromen-4-one], the inhibition at 20 µM was less than 10%.

Regarding `C#CCOc1cc(OC)ccc1/C=C/c1cc(=O)c2ccc(OC)cc2o1` [Compound 3f, (E)-7-methoxy-2-[4-methoxy-2-(prop-2-yn-1-yloxy)styryl]-4H-chromen-4-one], the inhibition at 20 µM came to 48%.

On to `O=c1c2ccccc2oc2cc3c(cc12)COc1ccccc1-3` [Compound 4a, 6H,8H-Chromeno[3,4-b]xanthen-8-one], for which the inhibition at 20 µM is less than 10%.

Regarding `COc1ccc2c(=O)c3cc4c(cc3oc2c1)-c1ccccc1OC4` [Compound 4b], the inhibition at 20 µM came to 70%.

Consider `C#CCN(CC#C)c1ccccc1/C=C/c1cc(=O)c2ccccc2o1` [Compound 8, (E)-2-{2-[di(prop-2-yn-1-yl)amino]styryl}-4H-chromen-4-one], for which the inhibition at 20 µM stood at 18%.

Regarding `Cc1ccc(C#CCOc2ccccc2/C=C/c2cc(=O)c3ccccc3o2)cc1` [Compound 10, (E)-2-(2-{[3-(4-methylphenyl)prop-2-yn-1-yl]oxy}styryl)-4H-chromen-4-one], the inhibition at 20 µM worked out at 66%.

For `O=S1(=O)OC(c2ccc(O)cc2)(c2ccc(O)cc2)c2ccccc21` [Phenol Red, Phenol red, reference compound], the inhibition at 20 µM came out at 20%.

Still in this experiment, the particulars now being: Table 3 (dual-target summary); 20 μM compound.
Take “2,11-Dimethoxy-6H,8H-chromeno[3,4-b]xanthen-8-one [Compound 4f]”: the “Aβ1-42 Aggregation (% Inhib. at 20 μM)” value was determined as 52%.

As to “2-Methoxy-6H,8H-chromeno[3,4-b]xanthen-8-one [Compound 4e]”, the “Aβ1-42 Aggregation (% Inhib. at 20 μM)” value was found to be 61%.

The same experiment, now with this note: Table 3 (dual-target summary); 20 μM compound; read-out: Aβ1-42 Aggregation (% Inhib. at 20 μM).
For the molecule `COc1ccc2c(=O)c3cc4c(cc3oc2c1)-c1ccccc1OC4` [Compound 4b], the inhibition at 20 µM lay within 66 to 70%.

Take `C#CCN(CC#C)c1ccccc1/C=C/c1cc(=O)c2ccccc2o1` [Compound 8, (E)-2-{2-[di(prop-2-yn-1-yl)amino]styryl}-4H-chromen-4-one]: the inhibition at 20 µM worked out at 18%.

Regarding `Cc1ccc(C#CCOc2ccccc2/C=C/c2cc(=O)c3ccccc3o2)cc1` [Compound 10, (E)-2-(2-{[3-(4-methylphenyl)prop-2-yn-1-yl]oxy}styryl)-4H-chromen-4-one], the inhibition at 20 µM is 66 to 70%.

Source of the values: PMC8072597, “Chromeno[3,4-b]xanthones as First-in-Class AChE and Aβ Aggregation Dual-Inhibitors” (International Journal of Molecular Sciences, 2021).
